Laboratory results reported in PubChem BioAssay (NCI).
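Abbreviation: GI50, concentration required for 50% inhibition of growth. TGI: concentration producing complete growth inhibition.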

Legend:
Test in all cases: NCI anticancer screen, dose series, 384-well format
PC-3 prostate = tested on: PC-3 prostate
NCI-H226 lung = tested on: NCI-H226 lung
UACC-257 melanoma = tested on: UACC-257 melanoma
HOP-62 NSCLC = tested on: HOP-62 NSCLC
A498 renal = tested on: A498 renal
NCI/ADR-RES ovarian = tested on: NCI/ADR-RES ovarian
KM12 colon = tested on: KM12 colon
HL-60(TB) leukemia = tested on: HL-60(TB) leukemia
MALME-3M melanoma = tested on: MALME-3M melanoma
HCC-2998 colon = tested on: HCC-2998 colon
IGROV1 ovarian = tested on: IGROV1 ovarian
SNB-75 CNS = tested on: SNB-75 CNS
MCF7 breast = tested on: MCF7 breast
SF-295 CNS = tested on: SF-295 CNS
SK-MEL-28 melanoma = tested on: SK-MEL-28 melanoma
OVCAR-8 ovarian = tested on: OVCAR-8 ovarian
ACHN renal = tested on: ACHN renal
NCI-H322M lung = tested on: NCI-H322M lung
SN12C renal = tested on: SN12C renal
HOP-92 NSCLC = tested on: HOP-92 NSCLC
COLO 205 colon = tested on: COLO 205 colon
T-47D breast = tested on: T-47D breast
OVCAR-5 ovarian = tested on: OVCAR-5 ovarian
SK-OV-3 ovarian = tested on: SK-OV-3 ovarian
HS 578T breast = tested on: HS 578T breast
HT29 colon = tested on: HT29 colon
MDA-MB-231 breast = tested on: MDA-MB-231 breast
SNB-19 CNS = tested on: SNB-19 CNS
A549 NSCLC = tested on: A549 NSCLC
TK-10 renal = tested on: TK-10 renal
M14 melanoma = tested on: M14 melanoma
CCRF-CEM leukemia = tested on: CCRF-CEM leukemia
U251 glioblastoma = tested on: U251 glioblastoma
MDA-MB-468 breast = tested on: MDA-MB-468 breast
EKVX NSCLC = tested on: EKVX NSCLC
MDA-MB-435 melanoma = tested on: MDA-MB-435 melanoma
UO-31 renal = tested on: UO-31 renal
NCI-H23 lung = tested on: NCI-H23 lung
SW-620 colon = tested on: SW-620 colon
HCT-116 colon = tested on: HCT-116 colon
SF-268 CNS = tested on: SF-268 CNS
RXF 393 renal = tested on: RXF 393 renal
OVCAR-3 ovarian = tested on: OVCAR-3 ovarian
RPMI-8226 leukemia = tested on: RPMI-8226 leukemia
NCI-H460 NSCLC = tested on: NCI-H460 NSCLC
UACC-62 melanoma = tested on: UACC-62 melanoma
SK-MEL-5 melanoma = tested on: SK-MEL-5 melanoma
SR leukemia = tested on: SR leukemia
LOX IMVI melanoma = tested on: LOX IMVI melanoma
MOLT-4 leukemia = tested on: MOLT-4 leukemia
DU-145 prostate = tested on: DU-145 prostate
OVCAR-4 ovarian = tested on: OVCAR-4 ovarian
BT-549 breast = tested on: BT-549 breast
K-562 leukemia = tested on: K-562 leukemia
SF-539 CNS = tested on: SF-539 CNS
786-0 renal = tested on: 786-0 renal
NCI-H522 lung = tested on: NCI-H522 lung
CAKI-1 renal = tested on: CAKI-1 renal

For CCOC(=O)C1=CCCC[C@H]1S(=O)(=O)Nc1ccc(F)cc1Cl, the GI50 (PC-3 prostate) was 18.8 µM, the TGI (PC-3 prostate) was 41 µM and the GI50 (NCI-H226 lung) was 18.8 µM. It also gave a TGI (NCI-H226 lung) of 52.3 µM, a GI50 (UACC-257 melanoma) of 17.5 µM and a TGI (UACC-257 melanoma) of 84.9 µM. It also gave a GI50 (HOP-62 NSCLC) of 19.4 µM, a TGI (HOP-62 NSCLC) of 73.7 µM and a GI50 (A498 renal) of 19.5 µM. The TGI (A498 renal) was 49.6 µM, the GI50 (NCI/ADR-RES ovarian) was 18.6 µM and the TGI (NCI/ADR-RES ovarian) was 39.4 µM. The GI50 (KM12 colon) was 21 µM, the TGI (KM12 colon) was 48.4 µM and the GI50 (HL-60(TB) leukemia) was 10.6 µM. It also gave a TGI (HL-60(TB) leukemia) of 22.7 µM, a GI50 (MALME-3M melanoma) of 21.7 µM and a TGI (MALME-3M melanoma) of 57.6 µM. It also gave a GI50 (HCC-2998 colon) of 18.4 µM, a TGI (HCC-2998 colon) of 37.3 µM and a GI50 (IGROV1 ovarian) of 29.8 µM. It also gave a TGI (IGROV1 ovarian) greater than 100 µM, a GI50 (SNB-75 CNS) of 20.4 µM and a TGI (SNB-75 CNS) of 55.3 µM. For the same compound, the GI50 (MCF7 breast) was 14.1 µM, the TGI (MCF7 breast) was 33 µM and the GI50 (SF-295 CNS) was 19.2 µM. It also gave a TGI (SF-295 CNS) of 52.5 µM, a GI50 (SK-MEL-28 melanoma) greater than 100 µM and a TGI (SK-MEL-28 melanoma) greater than 100 µM. The GI50 (OVCAR-8 ovarian) was 15.6 µM, the TGI (OVCAR-8 ovarian) was 38.6 µM and the GI50 (ACHN renal) was 27.9 µM. For the same compound, the TGI (ACHN renal) was 85.2 µM, the GI50 (NCI-H322M lung) was 20.1 µM and the TGI (NCI-H322M lung) was 51.1 µM. The GI50 (SN12C renal) was 18.4 µM, the TGI (SN12C renal) was 48.4 µM and the GI50 (HOP-92 NSCLC) was 16.9 µM. It also gave a TGI (HOP-92 NSCLC) of 39.8 µM, a GI50 (COLO 205 colon) of 28.4 µM and a TGI (COLO 205 colon) of 62.8 µM. The GI50 (T-47D breast) was 11.4 µM, the TGI (T-47D breast) was 24.1 µM and the GI50 (OVCAR-5 ovarian) was 26.7 µM. For the same compound, the TGI (OVCAR-5 ovarian) was 70.6 µM, the GI50 (SK-OV-3 ovarian) was 22.3 µM and the TGI (SK-OV-3 ovarian) was 65.5 µM. It also gave a GI50 (HS 578T breast) of 16.1 µM, a TGI (HS 578T breast) of 42.2 µM and a GI50 (HT29 colon) of 29.8 µM. For the same compound, the TGI (HT29 colon) was greater than 100 µM, the GI50 (MDA-MB-231 breast) was 27.3 µM and the TGI (MDA-MB-231 breast) was greater than 100 µM. For the same compound, the GI50 (SNB-19 CNS) was 23.6 µM, the TGI (SNB-19 CNS) was 79.9 µM and the GI50 (A549 NSCLC) was 32.1 µM. For the same compound, the TGI (A549 NSCLC) was greater than 100 µM, the GI50 (TK-10 renal) was 22 µM and the TGI (TK-10 renal) was 60.5 µM. For the same compound, the GI50 (M14 melanoma) was 21.9 µM, the TGI (M14 melanoma) was 68 µM and the GI50 (CCRF-CEM leukemia) was 14.8 µM. The TGI (CCRF-CEM leukemia) was 28.9 µM, the GI50 (U251 glioblastoma) was 18.1 µM and the TGI (U251 glioblastoma) was 41 µM. For the same compound, the GI50 (MDA-MB-468 breast) was 12.4 µM, the TGI (MDA-MB-468 breast) was 27.2 µM and the GI50 (EKVX NSCLC) was 19.4 µM. For the same compound, the TGI (EKVX NSCLC) was 44.3 µM, the GI50 (MDA-MB-435 melanoma) was 31 µM and the TGI (MDA-MB-435 melanoma) was greater than 100 µM. The GI50 (UO-31 renal) was 19 µM and the TGI (UO-31 renal) was 47.2 µM.

CN[C@H]1CN(c2ccc3c(=O)c(C(=O)O)cn(-c4nccs4)c3n2)C[C@@H]1OC gave a GI50 (PC-3 prostate) of 2.41 µM, a TGI (PC-3 prostate) of 15.4 µM and a GI50 (NCI-H23 lung) of 0.551 µM. The TGI (NCI-H23 lung) was 2.57 µM, the GI50 (SW-620 colon) was 0.823 µM and the TGI (SW-620 colon) was 7.71 µM. The GI50 (HCT-116 colon) was 0.371 µM, the TGI (HCT-116 colon) was 3.76 µM and the GI50 (NCI-H226 lung) was 1.23 µM. The TGI (NCI-H226 lung) was 3.6 µM, the GI50 (SF-268 CNS) was 0.421 µM and the TGI (SF-268 CNS) was 6.03 µM. It also gave a GI50 (RXF 393 renal) of 0.86 µM, a TGI (RXF 393 renal) of 5.37 µM and a GI50 (OVCAR-3 ovarian) of 1.32 µM. For the same compound, the TGI (OVCAR-3 ovarian) was 6.19 µM, the GI50 (RPMI-8226 leukemia) was 0.0605 µM and the TGI (RPMI-8226 leukemia) was 1.18 µM. The GI50 (NCI-H460 NSCLC) was 0.206 µM, the TGI (NCI-H460 NSCLC) was 1.35 µM and the GI50 (HOP-62 NSCLC) was 0.479 µM. It also gave a TGI (HOP-62 NSCLC) of 2.2 µM, a GI50 (A498 renal) of 0.781 µM and a TGI (A498 renal) of 3.83 µM. The GI50 (KM12 colon) was 0.654 µM, the TGI (KM12 colon) was 10.7 µM and the GI50 (HL-60(TB) leukemia) was 0.0776 µM. The TGI (HL-60(TB) leukemia) was 0.238 µM, the GI50 (MALME-3M melanoma) was 1.06 µM and the TGI (MALME-3M melanoma) was 2.7 µM. For the same compound, the GI50 (UACC-62 melanoma) was 0.427 µM, the TGI (UACC-62 melanoma) was 1.89 µM and the GI50 (IGROV1 ovarian) was 1.8 µM. The TGI (IGROV1 ovarian) was greater than 100 µM, the GI50 (SNB-75 CNS) was 0.855 µM and the TGI (SNB-75 CNS) was 2.47 µM. The GI50 (MCF7 breast) was 0.602 µM, the TGI (MCF7 breast) was greater than 100 µM and the GI50 (SF-295 CNS) was 0.426 µM. It also gave a TGI (SF-295 CNS) of 2.63 µM, a GI50 (SK-MEL-28 melanoma) of 1.13 µM and a TGI (SK-MEL-28 melanoma) of 2.93 µM. The GI50 (SK-MEL-5 melanoma) was 1.15 µM, the TGI (SK-MEL-5 melanoma) was 2.54 µM and the GI50 (SR leukemia) was 0.0189 µM. For the same compound, the TGI (SR leukemia) was 0.0443 µM, the GI50 (LOX IMVI melanoma) was 0.776 µM and the TGI (LOX IMVI melanoma) was 2.12 µM. For the same compound, the GI50 (OVCAR-8 ovarian) was 0.637 µM, the TGI (OVCAR-8 ovarian) was greater than 100 µM and the GI50 (ACHN renal) was 0.458 µM. For the same compound, the TGI (ACHN renal) was 2.44 µM, the GI50 (NCI-H322M lung) was 3.52 µM and the TGI (NCI-H322M lung) was 39.7 µM. For the same compound, the GI50 (MOLT-4 leukemia) was 0.0305 µM, the TGI (MOLT-4 leukemia) was 0.12 µM and the GI50 (DU-145 prostate) was 1.49 µM. For the same compound, the TGI (DU-145 prostate) was 7.07 µM, the GI50 (SN12C renal) was 0.403 µM and the TGI (SN12C renal) was 2.77 µM. For the same compound, the GI50 (HOP-92 NSCLC) was 1.61 µM, the TGI (HOP-92 NSCLC) was 8.56 µM and the GI50 (COLO 205 colon) was 0.394 µM. For the same compound, the TGI (COLO 205 colon) was greater than 100 µM, the GI50 (OVCAR-4 ovarian) was 4.36 µM and the TGI (OVCAR-4 ovarian) was greater than 100 µM. It also gave a GI50 (BT-549 breast) of 0.585 µM, a TGI (BT-549 breast) of 6.87 µM and a GI50 (SK-OV-3 ovarian) of 1.8 µM. For the same compound, the TGI (SK-OV-3 ovarian) was 26.3 µM, the GI50 (HS 578T breast) was 0.64 µM and the TGI (HS 578T breast) was 5.24 µM. The GI50 (K-562 leukemia) was 0.616 µM, the TGI (K-562 leukemia) was 6.05 µM and the GI50 (HT29 colon) was 1.28 µM. For the same compound, the TGI (HT29 colon) was 3.88 µM, the GI50 (MDA-MB-231 breast) was 1.41 µM and the TGI (MDA-MB-231 breast) was 11.4 µM. The GI50 (SNB-19 CNS) was 0.559 µM, the TGI (SNB-19 CNS) was 2.93 µM and the GI50 (SF-539 CNS) was 0.85 µM. For the same compound, the TGI (SF-539 CNS) was greater than 100 µM, the GI50 (A549 NSCLC) was 0.686 µM and the TGI (A549 NSCLC) was greater than 100 µM. The GI50 ([…]-0 renal) was 0.434 µM, the TGI (786-0 renal) was 4.59 µM and the GI50 (NCI-H522 lung) was 1.21 µM. For the same compound, the TGI (NCI-H522 lung) was 5.61 µM, the GI50 (TK-10 renal) was 1.79 µM and the TGI (TK-10 renal) was 12.1 µM. The GI50 (M14 melanoma) was 0.674 µM, the TGI (M14 melanoma) was 3.02 µM and the GI50 (CCRF-CEM leukemia) was 0.0586 µM. The TGI (CCRF-CEM leukemia) was 0.276 µM, the GI50 (U251 glioblastoma) was 0.675 µM and the TGI (U251 glioblastoma) was 2.56 µM. The GI50 (MDA-MB-468 breast) was 0.787 µM, the TGI (MDA-MB-468 breast) was 2.57 µM and the GI50 (CAKI-1 renal) was 0.752 µM. The TGI (CAKI-1 renal) was 6.44 µM, the GI50 (MDA-MB-435 melanoma) was 3.5 µM and the TGI (MDA-MB-435 melanoma) was greater than 100 µM. The GI50 (UO-31 renal) was 1.47 µM and the TGI (UO-31 renal) was 8.66 µM.
